Source: ChEMBL document CHEMBL3259748, “Synthesis, characterization, and PK/PD studies of a series of spirocyclic pyranochromene BACE1 inhibitors” (Bioorg Med Chem Lett, 2014)

Assays:
[1] = system: MDR1 (human); assay: Apparent permeability of the compound across pig LLC-PK1 cells expressing human MDR1; format: ADME, cell-based, Sus scrofa
[2] = Clearance in human liver microsomes at 1 uM after 20 mins in presence of NADPH; format: ADME

Papp [1] [×10⁻⁶ cm/s]	CLhep predicted at 1 µM [2] [mL/min/kg]	Compound
14	13	NC1=N[C@@]2(CO1)c1cc(-c3cncc(Cl)c3)ccc1O[C@@H]1COCC[C@H]12
10	15	C[C@]12COCC[C@@H]1[C@]1(COC(N)=N1)c1cc(-c3cncc(Cl)c3)ccc1O2 (racemic)
15	9	NC1=N[C@@]2(CO1)c1cc(-c3cncc(F)c3)ccc1O[C@@H]1COCC[C@H]12
10	6	NC1=N[C@@]2(CO1)c1cc(-c3cccnc3F)ccc1O[C@@H]1COCC[C@H]12
11	10	NC1=N[C@@]2(CO1)c1cc(-c3cc(F)cc(Cl)c3)ccc1O[C@@H]1COCC[C@H]12
11	8	N#Cc1cccc(-c2ccc3c(c2)[C@@]2(COC(N)=N2)[C@@H]2CCOC[C@H]2O3)c1
4.7	15	NC1=N[C@@]2(CO1)c1cc(-c3cncc(Cl)c3)ccc1O[C@H]1COCC[C@@H]12
